According to patent US7399777B2, “Diarylcycloalkyl derivatives, processes for their preparation and their use as pharmceuticals” (Sanofi-Aventis Deutschland GmbH, priority 2001, dated 2008):

Target: T1, human PPARα (Homo sapiens, UniProt Q07869)
T1 construct: expressed in transfected cells; host or cells: HEK cells (human embryo kidney), stably transfected with pcDNA3-GR-GAL4-humanPPARα and the luciferase reporter pdeltaMG4LZ
T1 sequence (Q07869 167-468): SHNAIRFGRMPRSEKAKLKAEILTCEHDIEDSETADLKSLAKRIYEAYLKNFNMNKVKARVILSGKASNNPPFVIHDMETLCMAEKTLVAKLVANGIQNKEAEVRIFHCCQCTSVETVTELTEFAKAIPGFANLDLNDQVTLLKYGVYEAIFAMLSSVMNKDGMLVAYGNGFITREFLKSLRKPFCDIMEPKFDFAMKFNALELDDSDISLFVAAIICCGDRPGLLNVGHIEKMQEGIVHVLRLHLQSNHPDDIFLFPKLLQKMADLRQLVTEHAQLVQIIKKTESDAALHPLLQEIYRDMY
Assay: PPARα reporter cell line assay (stably transfected HEK cells, GR-GAL4-PPARα fusion protein, firefly luciferase reporter)
Assay type: cell-based
Settings: agonist activity in HEK PPARα reporter cell line; 24 h incubation; luciferase luminescence
Excerpt: To analyze the effectiveness of substances which bind to human PPARα, activating it in agonistic manner, a stable transfected HEK cell line (HEK=human embryo kidney) designated here as “PPARα reporter cell line” is used. It contains two genetic elements, a firefly luciferase reporter element and a PPARα fusion protein (GR-GAL4-PPARα) which controls the expression of the firefly luciferase reporter element in a PPARα ligand dependent way.
The PPARα reporter cell line was established in two steps: First, the firefly luciferase reporter element was constructed and stably transfected into HEK cells. Five DNA binding sites for the yeast transcription factor GAL4 (five repetitions of the sequence 5′-CGGAGTACTGTCCTCCGAG-3′) (SEQ ID NO:1) were cloned 5′ upstream of a 68 bp minimal RNA polymerase II promoter from the GR mouse mammary tumor virus long terminal repeat (accession # V01175) providing a CCAAT-box as well as a TATA-element. Cloning and sequencing was done as described by Sambrook J. et. al. (Molecular cloning, Cold Spring Harbor Laboratory Press, 1989). The complete Photinus pyralis luciferase gene (accession # M 15077) was cloned 3′ downstream of the GAL4 binding sites and the MMTV minimal promoter. The firefly luciferase reporter element consisting of 5 GAL4 binding sites, the MMTV minimal promoter and the full length luciferase gene was recloned into a plasmid backbone harboring a Zeozin resistence gene leading to plasmid “pdeltaMG4LZ”. This vector was transfected in HEK cells as described by Ausubel, F. M. et al. (Current protocols in molecular biology, Vol. 1-3, John Wiley & Sons, Inc., 1995). Stable clones have been selected using Zeozin as a selection agent (0.5 mg/ml).
In a second step, the PPARα fusion protein (GR-GAL4-PPARα) that controls expression of the firefly luciferase reporter element, was stably integrated in this cell background. For this purpose the cDNAs coding for the N-terminal 76 amino acids of the human glucocorticoid receptor (“GR”, accession # P04150) have been linked to amino acids 1-147 of the yeast GAL4-protein (accession # P04386) followed by the ligand binding domain of humanPPARα (amino acids S167-Y468, accession # S74349). The GR-GAL4-human PPARα construct was cloned into plasmid pcDNA3 (Invitrogen) were its expression is driven constitutively by the Cytomegalovirus promoter. The plasmid pcDNA3-GR-GAL4-humanPPARα was transfected in a stable HEK-cell clone that already contained the firefly luciferase reporter element described above. A double-transfected cell line containing both, the firefly luciferase reporter element as well as the GR-GAL4-humanPPARα fusion protein, has been selected on medium supplemented with Zeozin (0.5 mg/ml) and G418 (0.5 mg/ml).
The activity of PPARα agonists is determined in a three day test, described below:
The PPARα reporter cell line is cultivated up to 80% confluence in DMEM medium (# 41965-039, Life Technologies) with the following additives: 10% cs-FCS (fetal calf serum, #SH-30068.03, Hyclone), antibiotics (0.5 mg/ml of zeozin [#R250-01, Invitrogen], 0.5 mg/ml of G418 [#10131-019, Life Technologies], 1% penicillin streptomycin solution [#15140-031, Life Technologies]) and 2 mM of L-glutamine (#25030-032, Life Technologies). Cultivation is carried out in standard cell culture bottles (# 33111, Becton Dickinson) in a cell culture incubator at 37° C. and 5% CO2. The 80% confluent cells are washed once with 30 ml of PBS (#14190-094, Life Technologies), treated with 2 ml of trypsin solution (#25300-054, Life Technologies) at 37° C. for 2 min, taken up in 5 ml of the medium described above and counted in a cell counter. After dilution to 500,000 cells/ml, in each case 35,000 cells are sown into each well of a 96-well microtiter plate having a clear plastic bottom (#3610, Coming Costar). The plates are incubated in a cell incubator at 37° C. and 5% CO2 for 24 h.
The PPARα agonists to be tested are dissolved in DMSO at a concentration of 10 mM. […]

| Compound | EC50 [nM] |
| --- | --- |
| Cc1cccc(-c2nc(CO[C@H]3CCC[C@@H](OCc4cccc(C)c4C(=O)O)C3)c(C)o2)c1 [LIII, 2-{1R,3S-3-[2-(3-Methylphenyl)-5-methyloxazol-4-ylmethoxy]cyclohexyloxymethyl}-6-methylbenzoic acid] | 0.4 |
| COc1ccc(-c2nc(CO[C@H]3CCC[C@@H](OCc4cccc(C)c4C(=O)O)C3)co2)cc1 (relative stereo) [IV, cis-2-(3-(2-(4-Methoxyphenyl)oxazol-4-ylmethoxy)cyclohexyloxymethyl)-6-methylbenzoic acid] | 0.3 |
| Cc1cccc(CO[C@@H]2CCC[C@H](OCc3nc(-c4ccc(F)cc4)oc3C)C2)c1C(=O)O (stereo in doubt) [IX, cis-2-(3-[2-(4-Fluorophenyl)-5-methyloxazol-4-ylmethoxy]cyclohexyloxymethyl}-6-methylbenzoic acid] | 0.04 |
| Cc1ccccc1-c1nc(CO[C@H]2CCC[C@@H](OCc3cccc(C)c3C(=O)O)C2)c(C)o1 [LVI, 2-{1R,3S-3-[2-(2-Methylphenyl)-5-methyloxazol-4-ylmethoxy]cyclohexyloxymethyl}-6-methylbenzoic acid] | 0.54 |
| COc1ccc(-c2nc(CO[C@H]3CCC[C@@H](OCc4cccc(C)c4C(=O)O)C3)c(C)o2)cc1C [LXXII, 2-[(1R,3S)-3-(2-(4-methoxy-3-methylphenyl)-5-methyl-oxazol-4-ylmethoxy)-cyclohexyloxymethyl]-6-methyl-benzoic acid] | 0.24 |
| Cc1ccc(-c2nc(CO[C@H]3CCC[C@@H](OCc4cccc(C)c4C(=O)O)C3)c(C)o2)cc1C [LIV, 2-{1R,3S-3-[2-(3,4-Dimethylphenyl)-5-methyloxazol-4-ylmethoxy]cyclohexyloxymethyl}-6-methylbenzoic acid] | 0.08 |
| Cc1cccc(CO[C@@H]2CCC[C@H](OCc3nc(-c4ccc(Cl)cc4)oc3C)C2)c1C(=O)O [LII, 2-{1R,3S-3-[2-(4-Chlorophenyl)-5-methyloxazol-4-ylmethoxy]cyclohexyloxymethyl}-6-methylbenzoic acid] | 0.1 |
| Cc1cccc(CO[C@@H]2CCC[C@H](OCc3nc(-c4cccc(Br)c4)oc3C)C2)c1C(=O)O [LXVI, 2-{1R,3S-3-[2-(3-Bromophenyl)-5-methyloxazol-4-ylmethoxy]cyclohexyloxymethyl}-6-methylbenzoic acid] | 0.48 |
| 2-{3-[2-(4-Fluorophenyl)oxazol-4-ylmethoxy]cyclohexyloxy}-6-methylbenzoic acid [Example I] | 1 |
| Cc1cccc(CO[C@@H]2CCC[C@H](OCc3nc(-c4cccc(C#N)c4)oc3C)C2)c1C(=O)O [LIX, 2-{1R,3S-3-[2-(3-Cyanophenyl)-5-methyloxazol-4-ylmethoxy]cyclohexyloxymethyl}-6-methylbenzoic acid] | 0.62 |
| COc1ccc(-c2nc(CO[C@H]3CCC[C@@H](OCc4cccc(C)c4C(=O)O)C3)c(C)o2)cc1 [LXIV, 2-{1R,3S-3-[2-(4-Methoxyphenyl)-5-methyloxazol-4-ylmethoxy]cyclohexyloxymethyl}-6-methylbenzoic acid] | 0.13 |
| Cc1cccc(CO[C@@H]2CCC[C@H](OCc3nc(-c4cccc(OC(F)(F)F)c4)oc3C)C2)c1C(=O)O [LVII, 2-{1R,3S-3-[2-(3-Trifluoromethoxyphenyl)-5-methyloxazol-4-ylmethoxy]cyclohexyloxymethyl}-6-methylbenzoic acid] | 0.13 |
| Cc1cccc(COC2C=CC(OCc3coc(-c4ccc(F)cc4)n3)C2)c1C(=O)O (stereo not drawn) [XIX, 2-{4-[2-(4-Fluorophenyl)oxazol-4-ylmethoxy]cyclopent-2-enyloxymethyl}-6-methylbenzoic acid] | 16 |
| Cc1ccc(-c2nc(CO[C@@H]3CCC[C@H](OCc4cccc(C)c4C(=O)O)C3)co2)cc1 (stereo in doubt) [VII, cis-2-Methyl-6-[3-(2-p-tolyloxazol-4-ylmethoxy)cyclohexyloxymethyl]benzoic acid] | 4 |
| Cc1ccc(-c2nc(CO[C@H]3CCC[C@@H](OCc4cccc(C)c4C(=O)O)C3)c(C)o2)cc1 [LXII, 2-Methyl-6-[1R,3S-3-(5-methyl-2-p-tolyloxazol-4-ylmethoxy)cyclohexyloxymethyl]benzoic acid] | 0.08 |
| Cc1cccc(CO[C@@H]2CCC[C@H](OCc3nc(-c4ccc(OC(F)(F)F)cc4)oc3C)C2)c1C(=O)O [LXX, 2-methyl-6-[(1R,3S)-3-(5-methyl-2-(4-trifluoromethoxyphenyl)-oxazol-4-ylmethoxy)-cyclohexyloxymethyl]-benzoic acid] | 0.28 |
| Cc1cccc(CO[C@@H]2CCC[C@H](OCc3nc(-c4cccc(C(F)(F)F)c4)oc3C)C2)c1C(=O)O [Example L, 2-{1R,3S-3-[2-(3-Trifluoromethylphenyl)-5-methyloxazol-4-ylmethoxy]cyclohexyloxymethyl}-6-methylbenzoic acid] | 0.19 |
| Cc1ccc(-c2nc(CO[C@H]3CCC[C@@H](OCc4cccc(C)c4C(=O)O)C3)c(C)o2)c(C)c1 [LV, 2-{1R,3S-3-[2-(2,4-Dimethylphenyl)-5-methyloxazol-4-ylmethoxy]cyclohexyloxymethyl}-6-methylbenzoic acid] | 0.09 |
| COc1ccc(-c2nc(CO[C@H]3CCC[C@@H](OCc4cccc(C)c4C(=O)O)C3)c(C)o2)cc1OC [LVIII, 2-{1R,3S-3-[2-(3,4-Dimethoxyphenyl)-5-methyloxazol-4-ylmethoxy]cyclohexyloxymethyl}-6-methylbenzoic acid] | 0.46 |
| Cc1cccc(CC[C@@H]2CCC[C@H](OCc3coc(-c4ccc(F)cc4)n3)C2)c1C(=O)O (racemic) [XXVIII, rac-cis-2-(2-{3-[2-(4-Fluorophenyl)oxazol-4-ylmethoxy]cyclohexyl}ethyl)-6-methylbenzoic acid] | 0.67 |
| Cc1cccc(CO[C@H]2CCC[C@@H](OCc3nc(-c4ccccc4)oc3C)C2)c1C(=O)O [Example LXI, 2-Methyl-6-[1S,3R-3-(5-methyl-2-phenyloxazol-4-ylmethoxy)cyclohexyloxymethyl]benzoic acid] | 10 |
| Cc1cccc(CO[C@@H]2CCC[C@H](OCc3nc(-c4cccc(Cl)c4)oc3C)C2)c1C(=O)O [LI, 2-{1R,3S-3-[2-(3-Chlorophenyl)-5-methyloxazol-4-ylmethoxy]cyclohexyloxymethyl}-6-methylbenzoic acid] | 0.31 |
| Cc1cccc(CO[C@@H]2CCC[C@H](COCc3coc(-c4ccc(F)cc4)n3)C2)c1C(=O)O (racemic) [Example XXIV, rac-cis-2-{3-[2-(4-Fluorophenyl)oxazol-4-ylmethoxymethyl]cyclohexyloxymethyl}-6-methylbenzoic acid] | 0.9 |
| COc1cccc(-c2nc(CO[C@H]3CCC[C@@H](OCc4cccc(C)c4C(=O)O)C3)c(C)o2)c1 [IL, 2-{1R,3S-3-[2-(3-Methoxy-phenyl)-5-methyl-oxazol-4-ylmethoxy]-cyclohexyloxymethy}-6-methylbenzoic acid] | 0.52 |
